# Assay results published in patent publication US10588315B2, “Fungicidal compositions” (Syngenta Participations AG, priority 2012, dated 2020).
# Values joined by “and” are separate entries in the source; they are usually repeats but may differ in a detail not shown here. Identical values can stand only once. Like-named read-outs stand apart in the source and are kept apart here.
# Test system: Fusarium culmorum
# Experiment: Fusarium culmorum / liquid culture
# Assay type: cell-based
# Protocol: Mycelia fragments or conidia suspensions of a fungus, prepared either freshly from liquid cultures of the fungus or from cryogenic storage, were directly mixed into nutrient broth. DMSO solutions of the test compound (max. 10 mg/ml) was diluted with 0.025% Tween20 by factor 50 and 10 μl of this solution was pipetted into a microtiter plate (96-well format). […] The test plates were incubated in the dark at 24° C. and 96% rh. The inhibition of fungal growth was determined photometrically and visually after 2-4 days, depending on the pathosystem, and percent antifungal activity relative to the untreated check was calculated.
# Conidia of the fungus from cryogenic storage were directly mixed into nutrient broth (PDB potato dextrose broth). After placing a (DMSO) solution of test compound into a microtiter plate (96-well format), the nutrient broth containing the fungal spores was added.
smiles,measurement,setting,value
"CON(C(=O)c1cn(C)nc1C(F)F)C(C)Cc1c(Cl)cc(Cl)cc1Cl (centres unmarked) [Compound 1.001, 3-(difluoromethyl)-N-methoxy-1-methyl-N-[1-methyl-2-(2,4,6-trichlorophenyl)ethyl]pyrazole-4-carboxamide]",observed % activity,1.001 0.0125 ppm,11% and 16% and 7% and 10% and 6%
same,observed % activity,1.001 0.0250 ppm,24% and 28% and 34%
same,observed % activity,1.001 0.0500 ppm,46% and 54%
same,observed % activity,1.001 0.1000 ppm,50% and 56% and 52% and 57%
same,inhibition at 0.0063 ppm,"Fusarium culmorum, 1.001 0.0063 ppm, read-out: observed % activity",9%
same,inhibition at 0.05 ppm,"Fusarium culmorum, 1.001 0.0500 ppm (Table B54), read-out: observed % activity",51%
same,inhibition at 0.05 ppm,"Fusarium culmorum, 1.001 0.0500 ppm, read-out: observed % activity",49%
same,inhibition at 0.1 ppm,"Fusarium culmorum, 1.001 0.1000 ppm (Table B54), read-out: observed % activity",55%
same,inhibition at 0.1 ppm,"Fusarium culmorum, 1.001 0.1000 ppm, read-out: observed % activity",58%
same,inhibition at 0.2 ppm,"Fusarium culmorum, 1.001 0.2000 ppm (Table B54), read-out: observed % activity",60%
same,inhibition at 0.2 ppm,"Fusarium culmorum, 1.001 0.2000 ppm, read-out: observed % activity",60%
same,inhibition at 0.025 ppm,"Fusarium culmorum, B3.3, 1.001 0.0250 ppm, read-out: observed % activity",19%
same,inhibition at 0.05 ppm,"Fusarium culmorum, B3.3, 1.001 0.0500 ppm, read-out: observed % activity",48%
same,inhibition at 0.1 ppm,"Fusarium culmorum, B3.3, 1.001 0.1000 ppm, read-out: observed % activity",55%
same,inhibition at 0.2 ppm,"Fusarium culmorum, B3.3, 1.001 0.2000 ppm, read-out: observed % activity",59%
same,inhibition at 0.025 ppm,"Fusarium culmorum, B5.3, 1.001 0.0250 ppm, read-out: observed % activity",9%
same,inhibition at 0.05 ppm,"Fusarium culmorum, B5.3, 1.001 0.0500 ppm, read-out: observed % activity",39%
